Literature values in patent US12070440B2, “Topical formulations of nitroglycerin” (PERMEATUS, INC., priority 2022, dated 2024).
Read-outs that look alike come from different tables or passages of the source.

## O=[N+]([O-])OCC(CO[N+](=O)[O-])O[N+](=O)[O-] [nitroglycerin, 1,2,3-trinitroxypropane]
Acidic environment (0.1N HCl)
  decomposition by denitration to 1,2-GDN: faster
pH 7.4
  decomposition by denitration to 1,2-GDN: slow
pH values of 11 and above
  decomposition by denitration to 1,2-GDN: rapid
